Experimental data reported in patent US9650395B2, “Antibacterial compounds and methods for use” (PTC Therapeutics, Inc., priority 2011, dated 2017).
Converted amounts (≈) assume the structure as drawn. Like-named read-outs stand apart in the source and are kept apart here.

How the values were obtained:
[1] = system: control Gram-negative E. coli 25922 strain; test: Antibacterial activity, microbroth dilution MIC, E. coli 25922; type: cell-based, Escherichia coli; details: Escherichia coli; E. coli 25922, microbroth dilution; read-out: MIC, 25922
[2] = system: super sensitive Gram-negative Escherichia coli (E. coli) BAS849; test: Antibacterial activity, microbroth dilution MIC, E. coli BAS849; type: cell-based; details: Escherichia coli, read-out: MIC, BAS849
[3] = system: Gram-positive Staphylococcus aureus (S. aureus) 29213; test: Antibacterial activity, microbroth dilution MIC, S. aureus 29213; type: cell-based; details: Staphylococcus aureus; S. aureus 29213, microbroth dilution; read-out: MIC, 29213
[4] = system: Haemophilus influenzae (H. influenzae) 49247; test: Antibacterial activity, MIC, H. influenzae 49247; type: cell-based; details: Haemophilus influenzae; H. influenzae 49247; read-out: MIC 49247
Source text: (§1) The antibacterial activity from a microbroth dilution method may be presented as the minimum inhibitory concentration (MIC in […]). The MIC value is the lowest concentration of a drug which prevents macroscopically visible bacterial growth under test conditions.
Antibacterial activity of test compounds against the Gram-negative bacteria Haemophilus influenzae (H. influenzae) 49247, Moraxella catarrhalis (M. catarrhalis) 25238 and Neisseria meningitidis (N. meningitidis) 13090 is shown in Table 6.

[5] = system: Moraxella catarrhalis (M. catarrhalis) 25238; test: Antibacterial activity, MIC, M. catarrhalis 25238; type: cell-based; details: Moraxella catarrhalis, M. catarrhalis 25238; read-out: MIC 25238
[6] = system: Neisseria meningitidis (N. meningitidis) 13090; test: Antibacterial activity, MIC, N. meningitidis 13090; type: cell-based; details: Neisseria meningitidis; N. meningitidis 13090; read-out: MIC 13090
[7] = system: E. coli ELZ4251 (MDR clinical isolate); test: Antibacterial activity, MIC, MDR E. coli ELZ4251; type: cell-based, Escherichia coli; details: Escherichia coli, E. coli ELZ4251, MDR clinical isolate; read-out: MIC ELZ4251
[8] = system: quinolone resistant E. coli LZ3111; test: Antibacterial activity, MIC, quinolone resistant E. coli LZ3111; type: cell-based, Escherichia coli; details: Escherichia coli, read-out: MIC, LZ3111
Source text: as §1
Mutations in these regions are known to confer a high level resistance to the quinolone class of antibiotics.

[9] = system: E. coli ELZ4000 (MDR clinical isolate); test: Antibacterial activity, MIC, MDR E. coli ELZ4000; type: cell-based, Escherichia coli; details: Escherichia coli; E. coli ELZ4000, MDR clinical isolate; read-out: MIC ELZ4000
[10] = E. coli BAS849, microbroth dilution

## CN(C)c1ccc(-c2[nH]c(=O)c(C(=O)O)cc2C#N)cc1 [Cpd 14, 5-cyano-6-[4-(dimethylamino)phenyl]-2-oxo-1,2-dihydropyridine-3-carboxylic acid]
[1]
  MIC: 12.5 to 150 µg/mL (≈ 44.1 to 529 µM)
[2]; [10]
  MIC: 12.5 to 150 µg/mL (≈ 44.1 to 529 µM)
[3]
  MIC: 12.5 to 150 µg/mL (≈ 44.1 to 529 µM)
[4]
  MIC: < 1 µg/mL
[5]
  MIC: 12.5 to 150 µg/mL (≈ 44.1 to 529 µM)
[6]
  MIC: 12.5 to 150 µg/mL (≈ 44.1 to 529 µM)

## CCc1cc(C(=O)O)c(=O)[nH]c1-c1ccc(N(C)CCO)cc1 [Cpd 17, 5-ethyl-6-{4-[(2-hydroxyethyl)(methyl)amino]phenyl}-2-oxo-1,2-dihydropyridine-3-carboxylic acid]
[1]
  MIC: 3.5 to 12.5 µg/mL (≈ 11.1 to 39.5 µM)
[7]
  MIC: 12.5 to 150 µg/mL (≈ 39.5 to 474 µM)
[2]; [10]
  MIC: < 1 µg/mL
[3]
  MIC: 12.5 to 150 µg/mL (≈ 39.5 to 474 µM)
[4]
  MIC: < 1 µg/mL
[5]
  MIC: < 1 µg/mL
[6]
  MIC: < 1 µg/mL
[8]
  MIC: 12.5 to 150 µg/mL (≈ 39.5 to 474 µM)
[9]
  MIC: 12.5 to 150 µg/mL (≈ 39.5 to 474 µM)

## CN(C)c1ccc(-c2[nH]c(=O)c(C(=O)O)cc2CN)cc1.Cl [Cpd 22, 5-(aminomethyl)-6-[4-(dimethylamino)phenyl]-2-oxo-1,2-dihydropyridine-3-carboxylic acid hydrochloride]
[1]
  MIC: 12.5 to 150 µg/mL
[2]; [10]
  MIC: 12.5 to 150 µg/mL
[3]
  MIC: 12.5 to 150 µg/mL
[4]
  MIC: 12.5 to 150 µg/mL
[5]
  MIC: 12.5 to 150 µg/mL
[6]
  MIC: 3.5 to 12.5 µg/mL

## CCc1c(-c2ccc(NCCCI)cc2)[nH]c(=O)c(C(=O)O)c1O [Cpd 82, 5-ethyl-4-hydroxy-6-{4-[(3-iodopropyl)amino]phenyl}-2-oxo-1,2-dihydropyridine-3-carboxylic acid]
[1]
  MIC: 12.5 to 150 µg/mL (≈ 28.3 to 339 µM)
[2]; [10]
  MIC: 3.5 to 12.5 µg/mL (≈ 7.91 to 28.3 µM)
[3]
  MIC: 1 to 3.5 µg/mL (≈ 2.26 to 7.91 µM)
[4]
  MIC: < 1 µg/mL
[5]
  MIC: < 1 µg/mL
[6]
  MIC: < 1 µg/mL

## Cc1cc(C(=O)O)c(=O)[nH]c1-c1ccc(N2CCOCC2)c(F)c1 [Cpd 89, 6-[3-fluoro-4-(morpholin-4-yl)phenyl]-5-methyl-2-oxo-1,2-dihydropyridine-3-carboxylic acid]
[1]
  MIC: 12.5 to 150 µg/mL (≈ 37.6 to 451 µM)
[2]; [10]
  MIC: 12.5 to 150 µg/mL (≈ 37.6 to 451 µM)
[3]
  MIC: 12.5 to 150 µg/mL (≈ 37.6 to 451 µM)
[4]
  MIC: < 1 µg/mL
[5]
  MIC: 12.5 to 150 µg/mL (≈ 37.6 to 451 µM)
[6]
  MIC: 12.5 to 150 µg/mL (≈ 37.6 to 451 µM)

## CCc1cc(C(=O)O)c(=O)[nH]c1-c1ccc(N2CCN(C(=O)OC(C)(C)C)CC2)c(F)c1 [Cpd 91, 6-{4-[4-(tert-butoxycarbonyl)piperazin-1-yl]-3-fluorophenyl}-5-ethyl-2-oxo-1,2-dihydropyridine-3-carboxylic acid]
[1]
  MIC: 12.5 to 150 µg/mL (≈ 28.1 to 337 µM)
[2]; [10]
  MIC: 12.5 to 150 µg/mL (≈ 28.1 to 337 µM)
[3]
  MIC: 12.5 to 150 µg/mL (≈ 28.1 to 337 µM)
[4]
  MIC: 1 to 3.5 µg/mL (≈ 2.24 to 7.86 µM)
[5]
  MIC: < 1 µg/mL
[6]
  MIC: 3.5 to 12.5 µg/mL (≈ 7.86 to 28.1 µM)

## CCc1c(-c2ccc(N(CC)CC)cc2)[nH]c(=O)c(C(=O)O)c1O [Cpd 98, 6-[4-(diethylamino)phenyl]-5-ethyl-4-hydroxy-2-oxo-1,2-dihydropyridine-3-carboxylic acid]
[1]
  MIC: 12.5 to 150 µg/mL (≈ 37.8 to 454 µM)
[2]; [10]
  MIC: < 1 µg/mL
[3]
  MIC: 3.5 to 12.5 µg/mL (≈ 10.6 to 37.8 µM)
[4]
  MIC: 1 to 3.5 µg/mL (≈ 3.03 to 10.6 µM)
[5]
  MIC: 3.5 to 12.5 µg/mL (≈ 10.6 to 37.8 µM)
[6]
  MIC: < 1 µg/mL

## CCc1cc(C(=O)O)c(=O)[nH]c1-c1ccc(N2CCN(C(=O)OC(C)(C)C)CC2)cc1 [Cpd 102, 6-{4-[4-(tert-butoxycarbonyl)piperazin-1-yl]phenyl}-5-ethyl-2-oxo-1,2-dihydropyridine-3-carboxylic acid]
[1]
  MIC: 12.5 to 150 µg/mL (≈ 29.2 to 351 µM)
[2]; [10]
  MIC: 1 to 3.5 µg/mL (≈ 2.34 to 8.19 µM)
[3]
  MIC: 12.5 to 150 µg/mL (≈ 29.2 to 351 µM)
[4]
  MIC: 1 to 3.5 µg/mL (≈ 2.34 to 8.19 µM)
[5]
  MIC: < 1 µg/mL
[6]
  MIC: 1 to 3.5 µg/mL (≈ 2.34 to 8.19 µM)

## CCc1cc(C(=O)O)c(=O)[nH]c1-c1ccc(N2CCNCC2)cc1.O=C(O)C(F)(F)F [Cpd 103, 5-ethyl-2-oxo-6-[4-(piperazin-1-yl)phenyl]-1,2-dihydropyridine-3-carboxylic acid trifluoroacetate]
[1]
  MIC: 12.5 to 150 µg/mL
[2]
  MIC: 3.5 to 12.5 µg/mL
[3]
  MIC: 12.5 to 150 µg/mL
[4]
  MIC: < 1 µg/mL
[5]
  MIC: 12.5 to 150 µg/mL
[6]
  MIC: 3.5 to 12.5 µg/mL

## CCc1c(-c2ccc(N3CCNCC3)cc2)[nH]c(=O)c(C(=O)O)c1O.O=C(O)C(F)(F)F [Cpd 105, 5-ethyl-4-hydroxy-2-oxo-6-[4-(piperazin-1-yl)phenyl]-1,2-dihydropyridine-3-carboxylic acid trifluoroacetate]
[1]
  MIC: 3.5 to 12.5 µg/mL
[7]
  MIC: 12.5 to 150 µg/mL
[2]
  MIC: 1 to 3.5 µg/mL
[3]
  MIC: 12.5 to 150 µg/mL
[4]
  MIC: 3.5 to 12.5 µg/mL
[5]
  MIC: 3.5 to 12.5 µg/mL
[6]
  MIC: 1 to 3.5 µg/mL
[8]
  MIC: 12.5 to 150 µg/mL
[9]
  MIC: 12.5 to 150 µg/mL
